Assay results as given in patent US8455525B2, “Selective androgen receptor modulators” (Radius Health, Inc., priority 2008, dated 2013).
Counter-ions that a name gives are not always drawn. Like-named read-outs stand apart in the source and are kept apart here.

Molecular target: T1, androgen receptor (AR) (Rattus norvegicus, UniProt P15207)
T1 construct: purchased Invitrogen, Madison, Wis
T1 sequence (P15207 651-902 limits assumed): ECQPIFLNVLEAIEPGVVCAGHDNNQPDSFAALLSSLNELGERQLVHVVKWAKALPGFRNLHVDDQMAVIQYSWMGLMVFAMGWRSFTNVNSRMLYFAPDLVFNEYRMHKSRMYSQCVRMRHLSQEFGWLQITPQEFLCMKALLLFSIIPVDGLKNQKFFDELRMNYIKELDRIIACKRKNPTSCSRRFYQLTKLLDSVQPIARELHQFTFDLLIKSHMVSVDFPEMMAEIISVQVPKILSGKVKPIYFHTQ
Test: androgen receptor binding assay (fluorescence polarization, Fluormone AL Green competition)
Experimental: The assay was performed as specified by the manufacturer (Invitrogen, Madison, Wis.). Briefly, 1 μl of 10 mM compound was added to 500 μl of AR screening buffer in a 1.5 ml eppendorf tube to make a 2×10^−5M stock. 10-fold serial dilutions of the test compounds were prepared ranging in concentration from 10^−5M to 10^−12M. Each dilution was added in triplicate to a black 384-microtiter plate. The test compounds will be diluted 2-fold in the final reaction. 2×AR-Fluormone™ complex was prepared with 2 nM Flourmone AL Green™ and 30 nM AR. 25 μl of 2× complex was aliquoted to each reaction well, such that the final reaction volume was 50 μl per well. Plate was sealed with a foil cover and incubated in the dark at room temperature for 4 h. Polarization values for each well were measured. The polarization values were plotted against the concentration of the test compound. […] As a control, a competition curve for R1881 (methyltrienolone) was performed for each assay. Curve Fitting was performed using GraphPad Prism® software from GraphPad™ Software Inc. Binding data are reported as a single determination if the experiment was run once only and as the average of experiments if the binding experiment was performed two or more times with that compound.
Where multiple data points have been taken, the value reported is the average of the multiple determinations.

[1] = single determination or average of multiple determinations, read-out: Binding IC50 (AR-Binding Affinity)

| Compound | IC50 | IC50 [1] |
| --- | --- | --- |
| Cc1c(N[C@@H](c2nnc(-c3ccc(Cl)c(Cl)c3)o2)[C@@H](C)O)ccc(C#N)c1Cl [Example 32, 2-Chloro-4-((1R,2R)-1-(5-(3,4-dichlorophenyl)-1,3,4-oxadiazol-2-yl)-2-hydroxypropylamino)-3-methylbenzonitrile] | 2 nM |  |
| Cc1c(N[C@@H](c2nnc(-c3ccc(OS(=O)(=O)O)cc3)o2)[C@H](C)O)ccc(C#N)c1Cl [Example 72, Sodium 4-(5-((1R,2S)-1-(3-chloro-4-cyano-2-methylphenylamino)-2-hydroxypropyl)-1,3,4-oxadiazol-2-yl)phenyl sulfate] | 780 nM |  |
| Cc1c(N[C@@H](c2nnc(-c3ccc(C#N)cc3)o2)[C@@H](C)O)ccc(C#N)c1C(F)(F)F [Example 31, 4-((1R,2R)-1-(5-(4-cyanophenyl)-1,3,4-oxadiazol-2-yl)-2-hydroxypropylamino)-3-methyl-2-(trifluoromethyl)benzonitrile] | 5.9 nM |  |
| C[C@H](O)[C@@H](Nc1ccc(C#N)c2sccc12)c1nnc(-c2ccccc2)o1 [Example 63, 4-((1R,2S)-2-hydroxy-1-(5-phenyl-1,3,4-oxadiazol-2-yl)propylamino)benzo[b]thiophene-7-carbonitrile] | 1 nM |  |
| C[C@H](O)[C@@H](Nc1ccc(C#N)c(Cl)c1Cl)c1nnc(-c2ccccc2)o1 [Example 33, 2,3-dichloro-4-((1R,2S)-2-hydroxy-1-(5-phenyl-1,3,4-oxadiazol-2-yl)propylamino)benzonitrile] | 15 nM |  |
| Cc1c(N[C@@H](c2nnc(-c3ccc(F)cc3F)o2)[C@@H](C)O)ccc(C#N)c1Cl [Example 35, 2-Chloro-4-((1R,2R)-1-(5-(2,4-difluorophenyl)-1,3,4-oxadiazol-2-yl)-2-hydroxypropylamino)-3-methylbenzonitrile] | 0.2 nM |  |
| C[C@H](O)[C@@H](Nc1ccc(C#N)c(Cl)c1)c1nnc(-c2ccc(S(C)(=O)=O)cc2)o1 [Example 48, 2-Chloro-4-((1R,2S)-2-hydroxy-1-(5-(4-(methylsulfonyl)phenyl)-1,3,4-oxadiazol-2-yl)propylamino)benzonitrile] | > 1000 nM |  |
| C[C@@H](O)[C@@H](Nc1ccc(C#N)c2ccccc12)c1nnc(-c2ccccc2)o1 [Example 52, 4-((1R,2R)-2-Hydroxy-1-(5-phenyl-1,3,4-oxadiazol-2-yl)propylamino)-1-naphthonitrile] | 9 nM |  |
| Cc1c(N[C@@H](c2nnc(-c3ccc(CO)cc3)o2)[C@H](C)O)ccc(C#N)c1Cl [Example 49, 2-Chloro-4-((1R,2S)-2-hydroxy-1-(5-(4-(hydroxymethyl)phenyl)-1,3,4-oxadiazol-2-yl)propylamino)-3-methylbenzonitrile] | 2 nM |  |
| Cc1c(N[C@H](CCO)c2nnc(-c3ccc(C#N)cc3)o2)ccc(C#N)c1Cl [Example 79, (R)-2-chloro-4-(1-(5-(4-cyanophenyl)-1,3,4-oxadiazol-2-yl)-3-hydroxypropylamino)-3-methylbenzonitrile] | 2 nM |  |
| C[C@H](O)[C@@H](Nc1ccc(C#N)c(Cl)c1)c1nnc(-c2ccc(C#N)cc2)o1 [Example 50, 2-Chloro-4-((1R,2S)-1-(5-(4-cyanophenyl)-1,3,4-oxadiazol-2-yl)-2-hydroxypropylamino)benzonitrile] | 5 nM |  |
| Cc1c(N[C@@H](c2nnc(-c3ccc(O)c(Cl)c3)o2)[C@@H](C)O)ccc(C#N)c1Cl [Example 30, 2-Chloro-4-((1R,2R)-1-(5-(3-chloro-4-hydroxyphenyl)-1,3,4-oxadiazol-2-yl)-2-hydroxypropylamino)-3-methylbenzonitrile] | 0.3 nM |  |
| C[C@@H](O)[C@@H](Nc1ccc(C#N)c2ccccc12)c1nnc(-c2ccc(C#N)cc2)o1 [Example 51, 4-((1R,2R)-1-(5-(4-Cyanophenyl)-1,3,4-oxadiazol-2-yl)-2-hydroxypropylamino)-1-naphthonitrile] |  | 600 nM |
| COc1ccc(-c2nnc([C@H](Nc3ccc(C#N)c(Cl)c3C)[C@H](C)O)o2)cc1 [Example 2, 2-chloro-4-((1R,2S)-2-hydroxy-1-(5-(4-methoxyphenyl)-1,3,4-oxadiazol-2-yl)propylamino)-3-methylbenzonitrile] | 5 nM |  |
| C[C@H](O)[C@@H](Nc1ccc(C#N)c(Cl)c1Cl)c1nnc(-c2ccc(Cl)cc2)o1 [Example 34, 2,3-Dichloro-4-((1R,2S)-1-(5-(4-chlorophenyl)-1,3,4-oxadiazol-2-yl)-2-hydroxypropylamino)benzonitrile] | 4 nM |  |
| Cc1c(N[C@H](CO)c2nnc(-c3ccc(C#N)cc3)o2)ccc(C#N)c1Cl [Example 58, (R)-2-Chloro-4-(1-(5-(4-cyanophenyl)-1,3,4-oxadiazol-2-yl)-2-hydroxyethylamino)-3-methylbenzonitrile] | 10 nM |  |
| Cc1c(N[C@@H](c2nnc(-c3ccc(O)c(Cl)c3)o2)[C@H](C)O)ccc(C#N)c1Cl [Example 37, 2-Chloro-4-((1R,2S)-1-(5-(3-chloro-4-hydroxyphenyl)-1,3,4-oxadiazol-2-yl)-2-hydroxypropylamino)-3-methylbenzonitrile] | 0.2 nM |  |
| C[C@H](O)[C@@H](Nc1ccc(C#N)c2sccc12)c1nnc(-c2ccc(F)cc2)o1 [Example 62, 4-((1R,2S)-1-(5-(4-fluorophenyl)-1,3,4-oxadiazol-2-yl)-2-hydroxypropylamino)benzo[b]thiophene-7-carbonitrile] | 15 nM |  |
| CCCC(=O)Nc1ccc(-c2nnc([C@H](Nc3ccc(C#N)c(Cl)c3C)[C@@H](C)O)o2)cc1 [Example 71, N-(4-(5-((1R,2R)-1-(3-Chloro-4-cyano-2-methylphenylamino)-2-hydroxypropyl)-1,3,4-oxadiazol-2-yl)phenyl)butyramide] | 280 nM |  |
| C[C@@H](O)[C@@H](Nc1ccc(C#N)c2sccc12)c1nnc(-c2ccc(F)cc2)o1 [Example 64, 4-((1R,2R)-1-(5-(4-fluorophenyl)-1,3,4-oxadiazol-2-yl)-2-hydroxypropylamino)benzo[b]thiophene-7-carbonitrile] | 1 nM |  |
| CCc1c(N[C@@H](c2nnc(-c3ccccc3)o2)[C@H](C)O)ccc(C#N)c1Cl [Example 11, 2-chloro-3-ethyl-4-((1R,2S)-2-hydroxy-1-(5-phenyl-1,3,4-oxadiazol-2-yl)propylamino)benzonitrile] | 12 nM |  |
| Cc1c(N[C@@H](c2ncc(-c3ccccc3)o2)[C@H](C)O)ccc(C#N)c1Cl [Example 36, 2-Chloro-4-((1R,2S)-2-hydroxy-1-(5-phenyloxazol-2-yl)propylamino)-3-methylbenzonitrile] | 12 nM |  |
| Cc1nnc([C@H](Nc2ccc(C#N)c(Cl)c2C)[C@H](C)O)o1 [Example 43, 2-Chloro-4-((1R,2S)-2-hydroxy-1-(5-methyl-1,3,4-oxadiazol-2-yl)propylamino)-3-methylbenzonitrile hydrochloride] | 3 nM |  |
| Cc1c(N[C@@H](c2nnc(-c3ccc(-n4cccn4)cc3)o2)[C@H](C)O)ccc(C#N)c1Cl [Example 53, 4-((1R,2S)-1-(5-(4-(1H-Pyrazol-1-yl)phenyl)-1,3,4-oxadiazol-2-yl)-2-hydroxypropylamino)-2-chloro-3-methylbenzonitrile] | 1 nM |  |
| Cc1c(N[C@@H](c2nnc(-c3ccc(S(C)(=O)=O)cc3)o2)[C@H](C)O)ccc(C#N)c1Cl [Example 24, 2-chloro-4-((1R,2S)-2-hydroxy-1-(5-(4-(methylsulfonyl)phenyl)-1,3,4-oxadiazol-2-yl)propylamino)-3-methylbenzonitrile] | 200 nM |  |
| Cc1c(N[C@@H](c2nnc(-c3ccccc3)o2)C(C)(C)O)ccc(C#N)c1Cl [Example 14, (R)-2-chloro-4-(2-hydroxy-2-methyl-1-(5-phenyl-1,3,4-oxadiazol-2-yl)propylamino)-3-methylbenzonitrile] |  | 17 nM |
| C[C@@H](O)[C@@H](Nc1ccc(C#N)c2sccc12)c1nnc(-c2ccc(C#N)cc2)o1 [Example 61, 4-((1R,2R)-1-(5-(4-cyanophenyl)-1,3,4-oxadiazol-2-yl)-2-hydroxypropylamino)benzo[b]thiophene-7-carbonitrile] |  | 1 nM |
| Cc1c(N[C@@H](c2nnc(-c3ccc(Br)cc3)o2)[C@H](C)O)ccc(C#N)c1Cl [Example 56, 4-((1R,2S)-1-(5-(4-Bromophenyl)-1,3,4-oxadiazol-2-yl)-2-hydroxypropylamino)-2-chloro-3-methylbenzonitrile] | 10 nM |  |
| C=Cc1c(N[C@@H](c2nnc(-c3ccc(C#N)cc3)o2)[C@H](C)O)ccc(C#N)c1Cl [Example 80, 2-chloro-4-((1R,2S)-1-(5-(4-cyanophenyl)-1,3,4-oxadiazol-2-yl)-2-hydroxypropylamino)-3-vinylbenzonitrile] | 1 nM |  |
| Cc1c(N[C@@H](c2nnc(-c3cccc(O)c3)o2)[C@H](C)O)ccc(C#N)c1Cl [Example 7, 2-chloro-4-((1R,2S)-2-hydroxy-1-(5-(3-hydroxyphenyl)-1,3,4-oxadiazol-2-yl)propylamino)-3-methylbenzonitrile] | 0.4 nM |  |
